# Measured values: ChEMBL document CHEMBL3588774, “Tyrosyl-DNA Phosphodiesterase I Inhibitors from the Australian Plant Macropteranthes leichhardtii” (J Nat Prod, 2015)
# Activity calls are given as the source filed them. The calls are words filed in the database; no cut-off is given here.
# How the values were obtained:
# [1] = biological target: T1, Tyrosyl-DNA phosphodiesterase 1 (Homo sapiens, UniProt Q9NUW8); assay: Inhibition of Tdp1 (unknown origin) up to 40 uM incubated for 30 mins using 5'-/6-TAMN/AGGATCTAAAAGACTT/3BHQ_2/-3' substrate by microplate reader based assay
# T1 sequence (Q9NUW8 whole entry): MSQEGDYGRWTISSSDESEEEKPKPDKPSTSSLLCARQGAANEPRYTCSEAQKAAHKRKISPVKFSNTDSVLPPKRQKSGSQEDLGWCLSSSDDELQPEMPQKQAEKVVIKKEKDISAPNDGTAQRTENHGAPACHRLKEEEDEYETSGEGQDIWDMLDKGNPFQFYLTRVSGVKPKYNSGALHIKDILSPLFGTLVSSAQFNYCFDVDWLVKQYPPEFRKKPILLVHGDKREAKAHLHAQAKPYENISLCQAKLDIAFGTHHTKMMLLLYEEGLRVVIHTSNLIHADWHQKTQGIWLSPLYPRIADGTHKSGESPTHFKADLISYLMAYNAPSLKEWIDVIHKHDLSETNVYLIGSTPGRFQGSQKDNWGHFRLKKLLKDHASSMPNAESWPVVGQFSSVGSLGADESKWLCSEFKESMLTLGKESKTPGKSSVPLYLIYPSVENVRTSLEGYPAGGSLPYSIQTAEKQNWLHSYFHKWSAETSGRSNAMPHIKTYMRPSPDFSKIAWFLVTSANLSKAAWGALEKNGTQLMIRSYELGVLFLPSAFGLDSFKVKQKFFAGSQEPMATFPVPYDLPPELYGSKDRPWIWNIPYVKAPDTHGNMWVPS
# [2] = biological target: T1, Tyrosyl-DNA phosphodiesterase 1; assay: Inhibition of Tdp1 (unknown origin) incubated for 30 mins using 5'-/6-TAMN/AGGATCTAAAAGACTT/3BHQ_2/-3' substrate by microplate reader based assay
SMILES,inhibition [1],IC50 [2]
COc1cc(C[C@@H](CO)O[C@@H]2O[C@H](COC(=O)c3cc(O)c(O)c(O)c3)[C@@H](O)[C@H](O)[C@H]2O)ccc1O,,1000 nM
COc1cc([C@@H]2O[C@H]3[C@H](O[C@H]2COC(=O)c2cc(O)c(O)c(O)c2)O[C@H](CO)[C@@H](O)[C@@H]3O)ccc1O,inactive,
COc1cc([C@@H]2O[C@H]3[C@H](O[C@H]2CO)O[C@H](COC(=O)c2cc(O)c(O)c(O)c2)[C@@H](O)[C@@H]3O)ccc1O,inactive,

# The remaining lines, values ahead:
inhibition [1],IC50 [2],SMILES
inactive,,COc1cc(O[C@@H]2O[C@H](COC(=O)c3cc(O)c(O)c(O)c3)[C@@H](O)[C@H](O)[C@H]2O)cc(OC)c1OC
,1000 nM,COc1ccc(O[C@@H]2O[C@H](COC(=O)c3cc(O)c(O)c(O)c3)[C@@H](O)[C@H](O)[C@H]2O)cc1OC
